Where no end group is shown, it is not given here.
Test: Turbidity assay for solubility of the peptides
Type: physicochemical
Conditions: solubility of the antigenic peptides in water or Dimethyl Sulfoxide (DMSO)
Experimental: A number of antigenic peptides of the invention were synthesized by chemical synthesis as described in Section 5.1.1.
A turbidity assay was used to assess the solubility of the peptides. Turbidity assays used either a Varian Cary double-beam spectrophotometer, or a Molecular Devices Spectromax absorbance plate reader (for high throughput experiments). The spectrophotometer assay read every 2 nm between 340 nm and 360 nm, and averaged the values. Samples were analyzed in duplicate using a quartz micro-cuvette that holds about 200 uL. The plate reader assay used a 96-well plate format that read every 4 nm between 340 nm and 360 nm and averaged those values. Samples in this assay were run in triplicate.

CC(C)C[C@H](NC(=O)[C@@H]1CCCN1C(=O)[C@@H](NC(=O)[C@H](CO)NC(=O)[C@H](C)NC(=O)[C@H](CO)NC(=O)[C@H](CO)NC(=O)[C@H](CCCNC(=N)N)NC(=O)[C@@H](NC(=O)[C@H](CO)NC(=O)[C@@H](N)CC(=O)O)C(C)C)C(C)C)C(=O)N[C@@H](Cc1ccc(O)cc1)C(=O)N1CCC[C@H]1C(=O)N[C@@H](C)C(=O)N[C@@H](C)C(=O)N[C@@H](CO)C(=O)N1CCC[C@H]1C(=O)N[C@H](C(=O)N1CCC[C@H]1C(=O)N[C@@H](C)C(=O)N[C@@H](CCC(=O)O)C(=O)N[C@@H](C)C(=O)N[C@@H](Cc1ccc(O)cc1)C(=O)N[C@@H](Cc1ccc(O)cc1)C(=O)N[C@@H](CO)C(=O)N[C@@H](CCC(=O)O)C(=O)N[C@@H](CO)C(=O)N[C@@H](CCC(=O)O)C(=O)N[C@@H](CC(=O)O)C(=O)N[C@@H](CCC(=O)O)C(=O)N[C@@H](C)C(=O)N[C@@H](C)C(=O)N[C@@H](CC(N)=O)C(=O)N[C@@H](CC(=O)O)C(=O)N[C@@H](Cc1ccccc1)C(=O)O)C(C)C [US09-2]
Solubility: water

AAGKRGDSGLLRVCAALSIPKPSEAVRPSRIPRAP [US11-2]
Solubility: water

LEVIFPTTDAKLNYLSRTQRLASLLTYAGPIKAPD [UL33-1]
Solubility: water

TQDTACVHGELLARKRERFAAVINRFLDLHQILRG [UL33-2]
Solubility: water

VNSAETNTHGLAYDVPEGIRRHLRNPKIRRAFTEQ [UL13-2]
Solubility: water

ASSQSKPLATQPPVLALSNAPPRRVSPTRGRRRHT [UL01-3]
Solubility: water

CC[C@H](C)[C@H](NC(=O)[C@H](Cc1ccc(O)cc1)NC(=O)[C@H](C)NC(=O)[C@H](Cc1ccc(O)cc1)NC(=O)CNC(=O)[C@H](CC(C)C)NC(=O)[C@H](C)NC(=O)[C@H](CCCNC(=N)N)NC(=O)[C@H](CC(C)C)NC(=O)[C@@H](NC(=O)[C@H](CCCNC(=N)N)NC(=O)[C@@H](NC(=O)[C@H](CS)NC(=O)[C@H](Cc1ccccc1)NC(=O)[C@H](CC(C)C)NC(=O)[C@H](Cc1c[nH]cn1)NC(=O)[C@H](C)NC(=O)[C@H](CC(C)C)NC(=O)[C@H](CCCNC(=N)N)NC(=O)[C@H](CC(C)C)NC(=O)[C@H](C)NC(=O)[C@@H]1CCCN1C(=O)[C@H](CCCCN)NC(=O)[C@H](CO)NC(=O)[C@@H]1CCCN1C(=O)[C@H](C)NC(=O)CNC(=O)[C@H](CO)NC(=O)[C@@H]1CCCN1C(=O)[C@H](C)NC(=O)[C@H](C)N)[C@@H](C)CC)C(C)C)C(=O)N[C@@H](CC(N)=O)C(=O)N[C@@H](CO)C(=O)NCC(=O)N[C@@H](CCC(N)=O)C(=O)O [UL41-1]
Solubility: water

ARLRLEARLGHLVAAILEREQSLVAHALGYQLAFV [UL22-4]
Solubility: water

SRLPPHTQPVFSKRVVMFAWSFLVLKPLELVAAGM [UL20-1]
Solubility: water

IVGILGCAAVGAAPTGPASDTTNATARLPTHPPLI [US05-2]
Solubility: water

DEVAPDHEAELYARVQRPGPVPDAEPIYDTVEGYA [UL10-5]
Solubility: water

DRPSAYGTWVRVRVFRPPSLTIHPHAVLEGQPFKA [UL44-4]
Solubility: water

VTTAEFPRDPGQLLYIPKTYLLGRPRNASLPELPE [UL22-1]
Solubility: water

CSCC[C@H](NC(=O)[C@H](CCCNC(=N)N)NC(=O)[C@H](Cc1c[nH]cn1)NC(=O)[C@@H](NC(=O)[C@H](CC(C)C)NC(=O)[C@H](CC(C)C)NC(=O)CNC(=O)[C@@H]1CCCN1C(=O)[C@H](CC(C)C)NC(=O)[C@H](CC(N)=O)NC(=O)[C@H](CCC(=O)O)NC(=O)[C@H](C)NC(=O)[C@H](CC(C)C)NC(=O)[C@H](CC(C)C)NC(=O)[C@H](C)NC(=O)[C@@H](NC(=O)[C@H](CCC(=O)O)NC(=O)[C@@H]1CCCN1C(=O)[C@@H](N)CC(C)C)[C@@H](C)O)C(C)C)C(=O)N[C@@H](C)C(=O)N[C@H](C(=O)N[C@@H](C)C(=O)N[C@@H](CC(C)C)C(=O)N1CCC[C@H]1C(=O)N[C@@H](CCC(=O)O)C(=O)N[C@H](C(=O)N1CCC[C@H]1C(=O)N[C@@H](CCC(=O)O)C(=O)N[C@@H](C)C(=O)N[C@@H](C)C(=O)N[C@@H](Cc1ccccc1)C(=O)N[C@@H](CCCNC(=N)N)C(=O)N[C@@H](CCC(=O)O)C(=O)N[C@@H](CCSC)C(=O)N[C@@H](CC(=O)O)C(=O)O)[C@@H](C)O)C(C)C [UL37-1]
Solubility: DMSO

SSDVPSVALLLFPNGTVIHLLAFDTLPIATIAPGF [UL22-3]
Solubility: DMSO

CC(C)C[C@H](NC(=O)[C@H](C)NC(=O)[C@H](CCCNC(=N)N)NC(=O)[C@@H](NC(=O)[C@@H](NC(=O)[C@H](Cc1c[nH]cn1)NC(=O)CNC(=O)CNC(=O)[C@H](CC(C)C)NC(=O)[C@H](CO)NC(=O)[C@H](CC(C)C)NC(=O)[C@H](CO)NC(=O)[C@H](CCCNC(=N)N)NC(=O)[C@@H]1CCCN1C(=O)[C@H](C)NC(=O)[C@@H](NC(=O)[C@H](CCCNC(=N)N)NC(=O)[C@@H]1CCCN1C(=O)[C@H](CC(N)=O)NC(=O)CN)[C@@H](C)O)[C@@H](C)O)C(C)C)C(=O)N[C@@H](CO)C(=O)N1CCC[C@H]1C(=O)N[C@H](C(=O)N1CCC[C@H]1C(=O)N1CCC[C@H]1C(=O)N[C@@H](Cc1c[nH]c2ccccc12)C(=O)N1CCC[C@H]1C(=O)NCC(=O)N[C@H](C(=O)N[C@@H](CC(=O)O)C(=O)N[C@@H](CC(=O)O)C(=O)N[C@@H](CCC(=O)O)C(=O)N[C@@H](CC(=O)O)C(=O)N[C@@H](CC(=O)O)C(=O)N[C@@H](CC(=O)O)C(=O)O)[C@@H](C)O)[C@@H](C)O [RL02-1]
Solubility: water

CSCC[C@H](NC(=O)[C@H](CC(C)C)NC(=O)[C@H](CC(N)=O)NC(=O)[C@H](CCC(=O)O)NC(=O)[C@H](CC(C)C)NC(=O)[C@H](CC(C)C)NC(=O)[C@@H](NC(=O)[C@@H]1CCCN1C(=O)[C@H](Cc1ccccc1)NC(=O)[C@H](CCCNC(=N)N)NC(=O)[C@H](CCCNC(=N)N)NC(=O)[C@@H](NC(=O)[C@@H](NC(=O)[C@H](CCC(=O)O)NC(=O)CNC(=O)[C@@H](N)CC(C)C)C(C)C)[C@@H](C)O)C(C)C)C(=O)N[C@@H](CCCNC(=N)N)C(=O)N[C@@H](C)C(=O)N[C@@H](CC(C)C)C(=O)N[C@@H](CCC(=O)O)C(=O)NCC(=O)N[C@H](C(=O)N[C@@H](C)C(=O)N1CCC[C@H]1C(=O)N[C@@H](CC(=O)O)C(=O)N[C@@H](C)C(=O)N[C@@H](Cc1ccccc1)C(=O)N[C@@H](Cc1ccccc1)C(=O)N[C@@H](Cc1c[nH]cn1)C(=O)N[C@H](C(=O)N[C@@H](C)C(=O)N[C@@H](Cc1ccc(O)cc1)C(=O)N[C@@H](C)C(=O)N[C@@H](CC(C)C)C(=O)N[C@@H](C)C(=O)O)[C@@H](C)O)[C@@H](C)O [UL17-2]
Solubility: water

VSIIALTELYFILRRGSAPKNAEPAAPRGRSKGWS [UL53-3]
Solubility: water

CSCC[C@H](NC(=O)[C@H](Cc1ccccc1)NC(=O)[C@H](C)NC(=O)CNC(=O)[C@@H](NC(=O)[C@H](Cc1ccccc1)NC(=O)[C@H](CCCNC(=N)N)NC(=O)[C@@H]1CCCN1C(=O)[C@H](CC(=O)O)NC(=O)[C@H](CCC(N)=O)NC(=O)[C@@H](NC(=O)[C@H](CO)NC(=O)[C@@H](NC(=O)CNC(=O)[C@@H](N)CCC(=O)O)C(C)C)[C@@H](C)O)C(C)C)C(=O)N[C@@H](C)C(=O)N[C@@H](C)C(=O)N[C@@H](CCCCN)C(=O)N[C@@H](C)C(=O)N[C@@H](C)C(=O)N[C@@H](Cc1c[nH]cn1)C(=O)N[C@@H](CC(C)C)C(=O)N[C@@H](CCC(=O)O)C(=O)N[C@@H](CC(C)C)C(=O)N[C@@H](CCC(=O)O)C(=O)N[C@@H](C)C(=O)N[C@@H](CCCNC(=N)N)C(=O)N[C@@H](CC(C)C)C(=O)N[C@@H](CCCCN)C(=O)N[C@@H](CO)C(=O)N[C@@H](CCCNC(=N)N)C(=O)N[C@@H](C)C(=O)N[C@@H](CCCNC(=N)N)C(=O)N[C@@H](CC(C)C)C(=O)N[C@@H](CCC(=O)O)C(=O)O [UL14-1]
Solubility: water

CC[C@H](C)[C@H](NC(=O)[C@H](CCCCN)NC(=O)[C@@H](N)C(C)C)C(=O)N[C@@H](CCCNC(=N)N)C(=O)N[C@H](C(=O)N[C@@H](CCC(=O)O)C(=O)N[C@@H](CCC(=O)O)C(=O)N[C@@H](CCC(N)=O)C(=O)N[C@@H](C)C(=O)N[C@@H](C)C(=O)N[C@@H](CCCNC(=N)N)C(=O)N[C@@H](CCCNC(=N)N)C(=O)N[C@@H](CC(=O)O)C(=O)N[C@@H](Cc1ccccc1)C(=O)N[C@@H](CC(C)C)C(=O)N[C@H](C(=O)N[C@@H](C)C(=O)N[C@@H](Cc1c[nH]cn1)C(=O)N[C@@H](CCCNC(=N)N)C(=O)N[C@@H](CCCNC(=N)N)C(=O)N[C@@H](Cc1ccc(O)cc1)C(=O)N[C@@H](CC(C)C)C(=O)N[C@@H](CC(=O)O)C(=O)N1CCC[C@H]1C(=O)N[C@@H](C)C(=O)N[C@@H](CC(C)C)C(=O)N[C@@H](CO)C(=O)N[C@@H](CCC(=O)O)C(=O)N[C@@H](CCCNC(=N)N)C(=O)N[C@@H](CC(C)C)C(=O)N[C@@H](CC(=O)O)C(=O)N[C@@H](C)C(=O)N[C@@H](C)C(=O)N[C@@H](CC(=O)O)C(=O)N[C@@H](CC(=O)O)C(=O)O)[C@@H](C)O)C(C)C [UL14-2]
Solubility: water

CC[C@H](C)[C@H](NC(=O)[C@@H](NC(=O)[C@@H]1CCCN1C(=O)[C@@H](N)CC(=O)O)[C@@H](C)CC)C(=O)NCC(=O)N[C@H](C(=O)N[C@@H](C)C(=O)N[C@@H](C)C(=O)N[C@@H](C)C(=O)N[C@H](C(=O)N[C@@H](CC(C)C)C(=O)N[C@@H](CCC(=O)O)C(=O)N[C@@H](CC(N)=O)C(=O)N[C@@H](CC(C)C)C(=O)N[C@@H](C)C(=O)N[C@H](C(=O)N[C@@H](CCCNC(=N)N)C(=O)N[C@@H](CC(C)C)C(=O)N[C@@H](CCCNC(=N)N)C(=O)N1CCC[C@H]1C(=O)N[C@@H](Cc1ccccc1)C(=O)N[C@@H](CC(C)C)C(=O)N[C@@H](CCC(N)=O)C(=O)N[C@@H](CS)C(=O)N[C@@H](Cc1ccc(O)cc1)C(=O)N[C@@H](CC(C)C)C(=O)N[C@@H](CCCCN)C(=O)N[C@@H](C)C(=O)N[C@@H](CCCNC(=N)N)C(=O)NCC(=O)N[C@@H](CC(C)C)C(=O)N[C@@H](CS)C(=O)NCC(=O)N[C@@H](CC(C)C)C(=O)N[C@@H](CC(=O)O)C(=O)O)[C@@H](C)O)C(C)C)[C@@H](C)O [UL54-1]
Solubility: water

ATYLLNYAGRIVSSVFLQYPYTKITRLLCELSVQR [UL53-1]
Solubility: DMSO
